Assay results published in US12128035B2, “Activating pyruvate kinase R” (Novo Nordisk Health Care AG, priority 2021, dated 2024).

Assay: Phase 1: safety (adverse events) in SCD patients
Type: in vivo, human
Method: In the SD cohort, 7 pts (2 males, 5 females, all HbSS) received 700 mg Compound 1 (n=5) or placebo (n=2).
All SCD patients who received a single 700 mg dose of Compound 1 or placebo were monitored for adverse events for 7 days. The incidence of treatment emergent adverse events (TEAEs) in SCD patients receiving Compound 1 (700 mg) or placebo are reported in Table 23. Six TEAEs were reported in 4 patients; all TEAEs were grade 1 and transient. Specifically, six TEAEs were reported in 4 of 7 (57%) patients, including 3 TEAEs (arthralgia, headache, palpitations) in 2 of 5 (40%) pts receiving Compound 1 and 3 TEAEs (back pain, myalgia, pruritis) in 2 of 2 (100%) pts receiving placebo; all TEAEs were grade 1 and transient. […] One possibly related TEAE (palpitations) occurred about 8 hours post dose. No other symptoms were observed, and the palpitations resolved in <1 minute. […] The single 700 mg dose of Compound 1 was considered tolerable, and the first multiple dose SCD cohort was initiated.
Based on data from the MAD1 (300 mg once daily for 14 days), Compound 1 is well-tolerated in patients with SCD. In all, eighteen TEAEs were reported in 7 of 9 patients in the MAD1 (300 mg once daily) cohort (N=9). These included (a) eight Grade 1 TEAEs, including 3 patients c/o headache, 1 each of nausea, constipation, somnolence, increased LDH and increased AST, of which two AEs considered to be possibly related to study treatment were reported by one patient each (1 AE of headache and 1 AE of nausea); (b) six Grade 2 TEAEs, including 3 uncomplicated sickle pain events (in 2 patients), 1 patient with N/V and 1 increased reticulocytes, of which no AEs were considered related to study treatment, all AEs of pain events were considered unrelated and consistent with each patient's SCD pain history, and all AEs were treated with patient's standard home pain medications (no SAE/no hospitalization); and (c) one Grade 4 TEAE of elevated creatine kinase, unrelated to study treatment. Non-treatment-related AEs were consistent with events experienced in this patient population. No treatment-related serious AEs were reported.

SMILES: O=C([C@H](CO)c1ccccc1)N1CC2=C(C1)CN(S(=O)(=O)c1cnc3c(c1)OCCO3)C2 (single isomer, unassigned) [Compound 1]
- Any TEAE, n (%) (SCD 300 mg × 14 days (n = 7)): 6 (86%) n (%)
- Any serious adverse event (SAE), n (%) (SCD 300 mg × 14 days (n = 7)): 0 n (%)
- Related to study drug, n (%) (SCD 300 mg × 14 days (n = 7)): 2 (29%) n (%)
- tolerability (SCD 400 mg QD, 84 days (12 weeks), open-label): well-tolerated
- serious adverse events / TEAEs leading to withdrawal (SCD SD cohort): No serious adverse events (SAEs) or TEAEs leading to pt withdrawal were reported
- Any TEAE, n (%) (SCD single 700 mg (N = 5)): 2 (40) n (%)
- Related to study drug, n (%) (SCD single 700 mg (N = 5)): 1 (20) n (%)
